“Also recorded” adds a separate entry of the source.
Legend:
isolated rat aorta [1] = experiment: In vitro induction of tolerance to NO releasing compounds (vasorelaxation of pre-exposed aortic rings); assay type: cell-based; conditions: rings pre-treated with epinephrine and then with 0.44 mM of the same compound
Experimental: Aortic rings were prepared as described hereinabove, and were exposed to 0.44 mM GTN (vehicle was water:ethanol:propyleneglycol at proportional ratio of 1:1:1) for 1 hour before CCRC construction, to thereby induce tolerance to nitroglycerine. At the end of the tolerance induction period, rings were thrice washed with the path buffer (Krebs-bicrbonate) every 15 minutes for the following hour and then CCRC for vasorelaxation on GTN-induced tolerance rings were constructed for GTN (pretreated versus untreated rings, FIG. 15), in order to verify the ability to induce and measure GTN tolerance induction in vitro
Attempted induction of tolerance to the NO-donating compounds of the present invention was performed under the same conditions as for GTN. Thus, in an exemplary experiment, rings were exposed to 0.44 mM solution of Pet-3 in the attempt to induce tolerance for Pet-3. CCRC were then measured for the vasorelaxing effect of Pet-3 on a group of rings which were pre-exposed to Pet-3 as to induce tolerance to Pet-3, and for an untreated control group. The above protocol was repeated with Pet-2, Pet-7, Pet-8, Pet-12, Pet-24, Pet-43, Pet-149 and Pet-152.

[2] = tested on: c-GMP in slices of thoracic aorta of rats; experiment: Cyclic-GMP measurement in aortic rat tissue (radioimmunoassay); assay type: cell-based; conditions: for accumulation of cyclic-GMP as compared with GTN: isolated rat aorta, radioimmunoassay; for cGMP Post-infusion: post-infusion (repeated treatment)
Experimental: GTN (10^−6 M) was added to the chamber and, 1 minute after exposure to the drug, rings (usually 3-5) were taken, wrapped with aluminum foil and immediately frozen in liquid nitrogen for storage. Control sample group was treated with the vehicle solution only. At the time of analysis, rings were thawed, blotted over a dry gauzed and weighted. A known weight of tissue was homogenized in 2 ml ice-cold modified Hank's balanced salt solution containing (in gram/liter) NaCl 8; KCl 0.4; glucose 1; KH2PO4 0.06; Na2HPO4 0.047; Phenol red 0.017 and further containing 25 mM EDTA (disodium salt). The homogenate was centrifuged at 4000 g (force units) for 10 minutes at 2-4° C. and the supernatant was thereafter transferred into fresh pre-cooled test tube containing 1 ml of acetonitrile. The tubes were vortex mixed for a few seconds and subsequently centrifuged at 4000 g for 5 minutes at 2-4° C., to remove the precipitated protein. Each supernatant was transferred into a clean test tube and evaporated to dryness under a stream of nitrogen at 55° C. The dry residue was reconstituted with 10 volumes of Tris-EDTA buffer pH 7.5 (0.05 M Tris containing 4 mM EDTA). Aliquots of 100 μl of the reconstituted solution in duplicate were used for c-GMP measurements using Amersham RIA kit, as is described in Haj-Yehia & Benet [Pharmacology, 1995, 273, 1, pp. 94-100]. Standard curves were plotted with six concentrations (0, 0.5, 1, 2, 4 and 8 pmoles of c-GMP per tube).
The NO-tolerance effect of GTN and NO-donor compounds according to the present invention was measured by following the production of c-GMP in slices of thoracic aorta of rats. Thus, the production of c-GMP was measured as described in the methods section above for the reference NO-donor compound GTN, and for the NO-donors of the present invention Pet-2, Pet-3, Pet-7, Pet-8, Pet-10, Pet-12, Pet-24, Pet-59, Pet-106, Pet-107, Pet-120, Pet-147, Pet-149, Pet-152, Pet-154 and Pet-155.

[3] = tested on: cyclic-GMP in isolated aorta of rats; experiment: Induction of in vivo nitrate tolerance (cGMP in isolated aorta of rats pre-treated in vivo); design: species or system rat; conditions: rats pre-treated in vivo with the same compound
Experimental: For c-GMP levels and tolerance development, the rat's thoracic aorta was isolated after exposure to the tested compound in vivo, and measured as described above in the in vitro assays.
Male Sprague Dawley rats (220 to 250 grams) were housed under constant temperature and humidity conditions. Light was maintained at a 12/12 light dark cycle. Except for 12 hours before the experiment, when food fasting was initiated, all rats had free access to standard rat pellet diet and tap water. The animals were anesthetized by intraperitoneal injection of ketamine and xylazine combination (50 and 10 milligram per kilogram, respectively). […] The catheters were filled with normal saline solution containing 1000 IU/ml of heparin and plugged with a metal pin. Catheters were externalized to the back of the neck region and secured by a polyester felt disk.
After implantation, the rats were individually housed until they regained their preoperative weight and appeared healthy (3 to 4 days post-operation). At this time point (day 0), an osmotic mini-pump (Alza Corp., Palo Alto, Calif.) delivering constant volume (10 μl/hour) of vehicle or drug was connected to one of the intravenous catheters.
For inducing tolerance to the tested NO-donor according to the present invention, the animals received 200 μg/hour of the tested compound for 16 hours (short-term-induced tolerance). A similar number of animals were processed by the same surgical procedure and received the vehicle alone (10 μl/hour of a solution consisting of 30% ethanol and 30% propylene glycol in sterile distilled water for injection).
At the end of the infusion periods used for the development of tolerance (16 hour), the rats were anesthetized as described above, the two catheters were externalized and the delivering catheters were disconnected from the mini-pump. The abdomen was opened by midline incision and the thoracic aorta were isolated, washed and cleaned from the surrounding tissues. […]

[4] = tested on: hypertensive Sprague-Dawley male rats; experiment: Hypotensive effects: mean arterial pressure during intravenous bolus doses; assay type: in vivo, rat; conditions: for activity as hypotensive agents (MAP): rats given phenylephrine
Experimental: Mean arterial pressure (MAP) was monitored and determined during bolus infusion of Pet-2, Pet-3, Pet-7, Pet-8, Pet-12 and Pet-13. Briefly, polyethylene catheters (PE50) were inserted into the carotid artery and into the jugular vein of anesthetized hypertensive Sprague-Dawley male rats (200-300 grams). A blood pressure recorder was placed within the carotid artery. Phenylephrine (0.1 mg) was then injected and the mean arterial blood pressure (MABP) was monitored continuously until a stable baseline was reached. The hypotensive effects of intravenous (iv) bolus doses (0.1 mg of each tested compound) administered intravenously at the jugular vein in minimal volume of vehicle (0.2 ml per dose) were evaluated. Five minutes were allowed between each dose, during which the maximal decrease in MAP was recorded and a dose-response graph comparing the hypotensive effect of the compounds was constructed.

isolated rat aorta [5] = experiment: Cross-tolerance studies on aortic rings (GTN / Pet-12 pre-treatment); assay type: cell-based
Experimental: Cross-tolerance studies were conducted using the same technique described above for measuring vasorelaxation of aortic rings from rats. Two groups of aortic rings samples were pre-treated with GTN, then one group was measured for vasorelaxation by GTN and the second group for vasorelaxation by Pet-12, an exemplary NO-donor according to the present invention. For the opposite cross-tolerance studies, two groups of aortic rings samples were pre-treated with Pet-12, then one group was measured for vasorelaxation by GTN and the second group for vasorelaxation by Pet-12.

`O=[N+]([O-])OCC(CO[N+](=O)[O-])O[N+](=O)[O-]` [GTN, glyceryl trinitrate, reference compound] was tested, and the “tolerance induction in vitro (vasorelaxation, pre-treated versus control rings)” value (isolated rat aorta [1]) was “tolerance inducement caused by treatment with GTN; also recorded: causing the emergence of tolerance; also recorded: tolerance induced by treatment with GTN”, the “c-GMP level following a repeated treatment” value ([2]; rat thoracic aorta) was “significantly reduced” and the “tolerance induction by cyclic-GMP accumulation in aorta of rats pre-treated in vivo” value [3] was “tolerance inducing effect; also recorded: decreased”. For the same molecule, the “hypotensive effect on MAP following successive administrations” value ([4]; successive doses) was “attenuation in its effect on MAP”.

For `Cc1nc(C)c(CCO[N+](=O)[O-])s1` [Pet-3, 2,4-Dimethyl-5-(2-nitrooxy-ethyl)-thiazole], the “tolerance induction in vitro (vasorelaxation, pre-treated versus control rings)” value (isolated rat aorta [1]) was “absence of tolerance induction”, the “accumulation of cyclic-GMP as compared with GTN” value (“accumulation … compared with GTN” below) [2] was “increased levels of cGMP” and the “activity as hypotensive agents (MAP)” value [4] was “high activity”.

In the case of `Cc1nc(-c2cccnc2)sc1CCO[N+](=O)[O-]` [Pet-12, 3-[4-Methyl-5-(2-nitrooxy-ethyl)-thiazole-2-yl]-pyridine], the “tolerance induction in vitro (vasorelaxation, pre-treated versus control rings)” value (isolated rat aorta [1]) was “absence of tolerance induction”, the “vasorelaxation in rings made tolerant to GTN (cross-tolerance)” value (isolated rat aorta [5]; aorta pre-treated with GTN) was “has no effect on the vasorelaxation capacity of Pet-12; also recorded: absence of tolerance induction effect” and the “tolerance induction in rings pre-treated with Pet-12 (cross-tolerance)” value (isolated rat aorta [5]; aorta pre-treated with Pet-12, vasorelaxation by Pet-12 and GTN) was “does not evoke tolerance to itself not to GTN; also recorded: absence of tolerance induction effect”. The “tolerance induction by cyclic-GMP accumulation in aorta of rats pre-treated in vivo” value [3] was “lack of tolerance induction; also recorded: absence of tolerance induction” and the “activity as hypotensive agents (MAP)” value [4] was “high activity”.

In the case of `Cc1nc(N)sc1CCO[N+](=O)[O-]` [Pet-10, 4-methyl-5-(2-nitrooxy-ethyl)-thiazole-2-ylamine], the “accumulation … compared with GTN” value [2] was “increased levels of cGMP”.

In the case of `CC(=O)Nc1ccc(-c2nc(C)c(CCO[N+](=O)[O-])s2)cc1` [Pet-107, N-{4-[4-Methyl-5-(2-nitrooxy-ethyl)-thiazol-2-yl]-phenyl}-acetamide], the “tolerance induction in vitro (vasorelaxation, pre-treated versus control rings)” value (isolated rat aorta [1]) was “absence of tolerance induction”, the “accumulation … compared with GTN” value [2] was “increased levels of cGMP” and the “cGMP Post-infusion” value ([2]; rat thoracic aorta) was 125 ± 10 pmol/g tissue.

`Cc1nc(NC(=O)c2cccnc2)sc1CCO[N+](=O)[O-]` [Pet-154, N-[4-methyl-5-(2-nitrooxy-ethyl)-thiazol-2-yl]-nicotinamide] was tested, and the “accumulation … compared with GTN” value [2] was “increased levels of cGMP”.

`Cc1nc(CCCCc2nc(C)c(CCO[N+](=O)[O-])s2)sc1CCO[N+](=O)[O-]` [Pet-13] was tested, and the “activity as hypotensive agents (MAP)” value [4] was “high activity”.

`CCNc1nc(C)c(CCO[N+](=O)[O-])s1` [Pet-147, Ethyl-[4-methyl-5-(2-nitrooxy-ethyl)-thiazol-2-yl]-amine] was tested, and the “accumulation … compared with GTN” value [2] was “increased levels of cGMP”.

For `Cc1nc(NC(=O)[C@@H](C)c2ccc(CC(C)C)cc2)sc1CCO[N+](=O)[O-]` (stereo in doubt) [Pet-152, 2-(4-Isobutyl-phenyl)-N-[4-methyl-5-(2-nitrooxy-ethyl)-thiazol-2-yl]-propionamide], the “accumulation … compared with GTN” value [2] was “increased levels of cGMP”.

`Cc1nc(-c2ccc(C(F)(F)F)cc2)sc1CCO[N+](=O)[O-]` [Pet-59, 4-Methyl-5-(2-nitrooxy-ethyl)-2-(4-trifluoromethyl-phenyl)-thiazole] was tested, and the “accumulation … compared with GTN” value [2] was “increased levels of cGMP”.

In the case of `Cc1nc(-c2ccc(N)cc2)sc1CCO[N+](=O)[O-]` [Pet-106, 4-[4-Methyl-5-(2-nitrooxy-ethyl)-thiazol-2-yl]-phenylamine], the “tolerance induction in vitro (vasorelaxation, pre-treated versus control rings)” value (isolated rat aorta [1]) was “absence of tolerance induction”, the “accumulation … compared with GTN” value [2] was “increased levels of cGMP” and the “cGMP Post-infusion” value ([2]; rat thoracic aorta) was 120 ± 12 pmol/g tissue.

In the case of `Cc1nc(Nc2cccc3ccccc23)sc1CCO[N+](=O)[O-]` [Pet-149, [4-Methyl-5-(2-nitrooxy-ethyl)-thiazol-2-yl]-naphthalen-1-yl-amine], the “tolerance induction in vitro (vasorelaxation, pre-treated versus control rings)” value (isolated rat aorta [1]) was “absence of tolerance induction” and the “accumulation … compared with GTN” value [2] was “increased levels of cGMP”.

For `C=CCNc1nc(C)c(CCO[N+](=O)[O-])s1` [Pet-155, allyl-[4-methyl-5-(2-nitrooxy-ethyl)-thiazol-2-yl]-amine], the “accumulation … compared with GTN” value [2] was “increased levels of cGMP”.

For `Cc1nc(N(C)C)sc1CCO[N+](=O)[O-]` [Pet-7, Dimethyl-[4-methyl-5-(2-nitrooxy-ethyl)-thiazol-2-yl]-amine], the “tolerance induction in vitro (vasorelaxation, pre-treated versus control rings)” value (isolated rat aorta [1]) was “absence of tolerance induction”, the “accumulation … compared with GTN” value [2] was “increased levels of cGMP” and the “activity as hypotensive agents (MAP)” value [4] was “high activity”.

In the case of `Cc1nc(Nc2nc(C)c(CCO[N+](=O)[O-])s2)sc1CCO[N+](=O)[O-]` [Pet-43, Bis-[4-methyl-5-(2-nitrooxy-ethyl)-thiazol-2-yl]-amine], the “tolerance induction in vitro (vasorelaxation, pre-treated versus control rings)” value (isolated rat aorta [1]) was “absence of tolerance induction”.

`Cc1nc(-c2ccccc2)sc1CCO[N+](=O)[O-]` [Pet-8, 4-Methyl-5-(2-nitrooxy-ethyl)-2-phenyl-thiazole] was tested, and the “accumulation … compared with GTN” value [2] was “increased levels of cGMP” and the “activity as hypotensive agents (MAP)” value [4] was “high activity”.

In the case of `CNc1cncc(-c2nc(C)c(CCO[N+](=O)[O-])s2)n1` [Pet-24, Methyl-{6-[4-methyl-5-(2-nitrooxy-ethyl)-thiazol-2-yl]-pyrazin-2-yl}-amine], the “tolerance induction in vitro (vasorelaxation, pre-treated versus control rings)” value (isolated rat aorta [1]) was “absence of tolerance induction” and the “accumulation … compared with GTN” value [2] was “increased levels of cGMP”.

— patent US8134010B2, “Thiazole-based nitric oxide donors having aryl substituent(s) and uses thereof” (priority 2004, dated 2012)
